The record followed here is US12624123B2, “Compositions and methods for reducing off-target toxicity of antibody drug conjugates” (The Research Foundation for The State University of New York, priority 2019, dated 2026).

Where “and” joins values, the source holds several entries; their conditions need not be identical. Equal entries are not always repeated. Entries after “also recorded” stand apart in the source; their conditions may differ. Where two headings read alike, the source gives them in different places. Square brackets hold non-standard residues; d marks the D form. Peptide text beside a SMILES is read from it. * marks the point of attachment. Dolaproine = CO[C@@H]([C@@H]1CCCN1)[C@@H](C)C(=O)O; Dil = CC[C@H](C)[C@H](NC)[C@@H](CC(=O)O)OC; X1 = C[C@@H](N*)[C@@H](O)c1ccccc1; NMeV = CN[C@H](C(=O)O)C(C)C

Data set [1] deals with NCI-N87 cells. Kind of data set: Cytotoxicity of MMAE and T-vc-MMAE in NCI-N87 cells with or without plasma. The class given is cell-based. The conditions noted are these: 96 h, MMAE alone. Here is the method:
(§1) Log-phase MOLM-14, Ramos (RA 1), HT-29, LS174T, or NCI-N87 cells were seeded in 96-well microtiter plates at a density of 20,000 cells/well, 20,000 cells/well, 5,000 cells/well, 5,000 cells/well, and 10,000 cells/well, respectively, in 100 μL of culture medium. HT-29, LS174T, and NCI-N87 cells were allowed to adhere for 24 h before cell culture media was aspirated and replaced with 100 μL of fresh media containing a range of treatment for, 48 (LS174T), 96 (NCI-N87), or 120 (HT-29) h. MOLM-14 and Ramos cells were re-suspended with treatment solutions, where 100 μL of cell-treatment suspension was aliquoted into wells of a 96-well plate for 24 h. Treatment solutions consisted of calicheamicin, MMAE, topotecan, or SN38 with or without immunized animal plasma, purified anti-drug antibody, or antibody-drug conjugate (ADC) with or without plasma or anti-drug antibody. For MOLM-14 and Ramos cells, 25 μL of MTT solution (5 mg/mL in pH 7.4 1× PBS) was added directly to wells following treatment incubation. For adherent cells, treatment media was aspirated from wells and cells were washed three times with 100 μL of fresh media. Following the final wash, 100 μL of complete media and 25 μL of MTT solution were added to each well.

Data set [2] concerns SKBR3 cells. Briefly: Competitive cell assay with SKBR3 cells. The data set is classed as cell-based. The protocol:
SKBR3 cells were diluted to 4000 cells/100 μL and 100 μL was added to individual wells of a 96 well culture plate. Cells were incubated overnight to allow cells to adhere to the plate. […] Dxd and SN38 were diluted at the indicated concentrations and incubated for 90 minutes. Following incubation dilutions were added to individual wells in triplicate with fresh media dilutions added on day 1, 3 and 5 with cell viability evaluated on day 7 using an MTT assay.

For data set [3], the target named is 8C2 Fab. Kind of data set: Competitive SPR assay on exatecan chip. The data set is classed as binding. To be noted: 5 nM Fab, 1 hour incubation. Here is the method: Exatecan was immobilized onto a CMS chip through amine coupling. […] Dilutions were incubated for one hour and subsequently injected over the exatecan immobilized chip. The observed maximum response data was fit to a 3 parameter inhibition equation in GraphPad Prism 7.
B/Bo is signal reached after a 3.5 minute injection with spiked in drugs divided by signal with Fab alone.
Background: In SPR one partner is held on a chip, and binding of the other changes the refractive index at the surface.

Data set [4] concerns Lovo cells. Kind of data set: MTT cytotoxicity of DM1 and DM4 on Lovo cells. The class given is cell-based. The conditions noted are these: for IC50: DM4 alone, read-out: IC50 of DM4. Here is the method:
Log-phase Lovo or MOLM-14 cells were seeded in 96-well microtiter plates at a density of 5,000 cells/well, in 100 μL or 70 μL of culture medium, respectively. […] MOLM-14 cells were re-suspended with treatment solutions, where 100 μL of cell-treatment suspension was aliquoted into wells of a 96-well plate for 24 h. Treatment solutions consisted of DM-4 with or without purified anti-drug sdAb. For MOLM-14 cells, 10 μL of MTT solution (5 mg/mL in pH 7.4 1× PBS) was added directly to wells following treatment incubation. For adherent cells, treatment media was aspirated from wells and cells were washed three times with 100 μL of fresh media. Following the final wash, 100 μL of complete media and 25 μL of MTT solution were added to each well. Cells were incubated for 4 h in order to allow cells to reduce MTT to formazan dye. Once MTT was reduced, 100 μL of 10% SDS prepared in 0.01 M HCl was added to each well and incubated overnight to solubilize the formazan crystals. Formazan dye was measured at 570 nm and normalized by cell debris at 690 nm.

Data set [5] concerns MOLM-14 cells. Briefly: MTT cytotoxicity of DM4 on MOLM-14 cells (DF3A2). The data set is classed as cell-based, human. Here is the method: Log-phase Lovo or MOLM-14 cells were seeded in 96-well microtiter plates at a density of 5,000 cells/well, in 100 μL or 70 μL of culture medium, respectively. Lovo cells were allowed to adhere for 24 h before cell culture media was aspirated and replaced with 100 μL of PBS containing a range of treatment for 6h, then washed for 2 times before replacing with fresh media and incubated for additional 90 h. MOLM-14 cells were re-suspended with treatment solutions, where 100 μL of cell-treatment suspension was aliquoted into wells of a 96-well plate for 24 h. Treatment solutions consisted of DM-4 with or without purified anti-drug sdAb. For MOLM-14 cells, 10 μL of MTT solution (5 mg/mL in pH 7.4 1× PBS) was added directly to wells following treatment incubation. For adherent cells, treatment media was aspirated from wells and cells were washed three times with 100 μL of fresh media. Following the final wash, 100 μL of complete media and 25 μL of MTT solution were added to each well. Cells were incubated for 4 h in order to allow cells to reduce MTT to formazan dye. Once MTT was reduced, 100 μL of 10% SDS prepared in 0.01 M HCl was added to each well and incubated overnight to solubilize the formazan crystals. Formazan dye was measured at 570 nm and normalized by cell debris at 690 nm.

Data set [6] relates to HT-29 cells. Briefly: Competitive cell cytotoxicity (MTT) assay with HT-29 cells. The data set is classed as cell-based. To be noted: in absence of 8C2, read-out: IC50 of SN38. Here is the method:
as §1

Data set [7] relates to 8C2 mAb. Kind of data set: Competitive ELISA of 8C2 with topotecan and SN38 (BSA-topotecan coated). The data set is classed as binding, murine. To be noted: 8C2 held constant at 10 nM; read-out: IC50 in competitive ELISA vs intact 8C2. The protocol:
A competitive ELISA was employed to determine the affinity of intact 8C2 mAb for SN38 and topotecan. A BSA-topotecan conjugate was synthesized and immobilized as previously described (Shah et al., Int J Pharm. 2014; 465(1-2):228-238. doi:10.1016/j.ijpharm.2014.01.038) 8C2 concentration was held constant at 10 nM with increasing concentrations of topotecan or SN38. 8C2 drug samples were incubated for 2 hours at room temperature with agitation. Following incubation, wells were washed three times with 250 μL of PBS-T and three times with dH2O. Wells were then incubated with a 1:500 dilution anti-mouse AP conjugate secondary in PBS-T with 3% BSA for 1 h. After washing, 250 μL of 4 mg/ml PNPP in diethanolamine buffer pH 9.8 with absorbance being read at 405 nm. The change in absorbance over time data was fit to a four-parameter function in GraphPad Prism 7.
(ELISA stands for enzyme-linked immunosorbent assay.)

A short description of data set [8]: SPR dissociation screening on DM1-Biotin chip. The data set is classed as binding. The conditions noted are these: 20 min dissociation phase. The protocol: Preliminary screening of DM1/4 binders were performed using a neutravidin SPR chip with DM1-Biotin on the left channel. Phagemid purified sdAbs were flowed over the SPR chip for 2 minutes at a flow rate of 25 ul/min. After binding, sdAb was dissociated for 20 minutes. Observed sensorgrams were fit to an individual dissociation rate constant for each construct. Equilibrium and kinetic binding of 3A2 was assessed using a CM5 SPR chip with TDM1 immobilized on the left channel. […] Rate constants for 3A2-TDM1 association and dissociation were obtained through fitting of the observed sensorgrams for the 1.25, 2.5, 5, 7.5 and 10 nM injections to a 1:1 Langmuir binding model.

The subject of data set [9] is NCI-N87 cells. Briefly: NCI-N87 pulse cytotoxicity assay with C7 sdAb prep. To be noted: NCI-N87, 2 h pulse, 96 h with sdAb prep diluted 1:6.67. The data set is classed as cell-based. The protocol:
FIG. 43. Purification of C7 sdAb from BL21(DE3) transformed E. coli cells and inhibitory cell cytotoxicity assays. C7 sdAb was expressed to the periplasm using a pelB leader sequence and purified using IMAC Ni-NTA resin. […] Although the product was crude, it was employed in cell cytotoxicity assays. NCI-N87 cells were seeded at a density of 10,000 cells/well and pulse with treatment solutions for 2 h. After treatment removal and washing, cells were incubated for 96 h with sdAb prep, diluted 1:6.67 with fresh culture medium.
From the single domain library, there were nine positive hits from three rounds of panning against BSA-MMAF/T-vc-MMAE. The screening of isolated colonies determined all were inhibited by incubation with free MMAE (FIG. 42), with three >10-fold inhibition. One colony, C7 was selected for infection of BL21(DE3) cells and protein expression.

A short description of data set [10]: 8C2 VHH binding to SN38 immobilized on magnetic beads. The protocol: The complementarily determining regions of the 8C2 heavy chain were placed into the stable human framework m0 that was reported by Dimitrov et al (PMID 18687338). DNA encoding for the 8C2 VHH was synthesized by GeneArt. DNA sequences were ligated into the Pet22b vector between the XhoI and NdeI restriction enzyme sites. DNA was transformed into Shuffle T7 express E. coli cells and expressed using standard recombinant expression. To evaluate binding activity, 8C2 VHH was incubated with SN38 immobilized onto magnetic beads and bound VHH detected with an anti-HIS tag HRP labeled reporter antibody. Intact 8C2 mAb was incubated alone and in-combination with 8C2 VHH and 8C2 mAb binding evaluated with an anti-mouse IgG HRP reporter antibody.

As a reminder, the IC50 is the point on the concentration scale where inhibition reaches its midpoint. In data set [1], `CC[C@H](C)[C@@H]([C@@H](CC(=O)N1CCC[C@H]1[C@H](OC)[C@@H](C)C(=O)N[C@H](C)[C@@H](O)c1ccccc1)OC)N(C)C(=O)[C@@H](NC(=O)[C@@H](NC)C(C)C)C(C)C` [MMAE, monomethyl auristatin E] (H-[NMeV]V[Dil][Dolaproine]-X1) showed an IC50 of 0.496 ± 0.0327 nM.
As for `CC[C@@]1(O)C(=O)OCc2c1cc1n(c2=O)Cc2c-1nc1cc(F)c(C)c3c1c2[C@@H](NC(=O)CO)CC3` [Dxd], the IC50 in data set [2] (viability day 7, read-out: IC50 of Dxd alone) is 0.7 nM. Besides, in data set [3], the “IC50 for inhibition of Fab binding to immobilized exatecan” value was “low-nanomolar”.
As for `COc1cc2cc(c1Cl)N(C)C(=O)C[C@H](OC(=O)[C@H](C)N(C)C(=O)CCC(C)(C)S)[C@]1(C)O[C@H]1[C@H](C)[C@@H]1C[C@@](O)(NC(=O)O1)[C@H](OC)/C=C/C=C(\C)C2` [DM4], the 50% inhibitory concentration (IC50) is 7.7 nM and 21.5 nM in data set [4] (6 h exposure); 0.713 nM and 1.84 nM in data set [4] (24 h exposure); 18 nM and 18.4 nM in data set [5] (DM4 alone).
With `CCc1c2c(nc3ccc(O)cc13)-c1cc3c(c(=O)n1C2)COC(=O)[C@]3(O)CC` [SN38], the IC50 was found to be 1.4 nM in data set [2] (viability day 7, read-out: IC50 of free SN38); 8 nM in [6]; 10.3 nM in [7]. Also, in [3], the “IC50 for inhibition of Fab binding to immobilized exatecan” value is recorded as “low-nanomolar”.

B1: DF3A2 (protein)
VHH: QVQLQESGGGLVQPGGSLRLSCAASGGIFGISYMGWYRQAPGKQREPVALITSGGDTAYGDSVKGRFAISRDNAKNTVYLQMNSLKPDDTSAYYCAAGFYRSDSPNRYDYWGQGTQVTVSS
modifications: DF3A2
For B1, the “fold shift of DM4 IC50” value in [4] (6 h exposure) turned out to be 11 fold. Further, the dissociation kinetics result in data set [8] was “longest dissociation rates; also recorded: longer dissociation rates”. The “fold inhibition of DM4 cytotoxicity” value in [5] turned out to be 2.1 fold.

B2: MC7 (protein)
VHH: QVQLVQSGGGLVQAGGSLRLSCVASGRTFSMYRMGWFRQAPGKEREFVASIRWSGGSTYYTDSVKDRFTISRDNAKNTVYLQMNSLKPEDTAVYYCAADPVWRLNSWYRGAVGYWGQGTQVTVSS
modifications: MC7
For the molecule B2, in data set [9], the “fold enhancement of T-vc-MMAE cytotoxicity” value was 5.2 fold and the “fold inhibition of MMAE cytotoxicity” value is given as 5.6 fold.

B3: 8C2 VHH: heavy chain CDRs of 8C2 placed into a stable human framework, SEQ ID NO:69 (protein)
VHH: QVQLVQSGGGLVQPGGSLRLSCAASGFNIKDTYIHWMSWVRQAPGKGLEWVSPDLANDNTKYDPKYYADSVKGRFTISRDNSKNTLYLQMNTLRAEDTAVYYCATWGAIITLGGWGQTMVTVSS
modifications: 8C2 VHH
For the molecule B3, the “increase in binding signal vs beads with blank buffer” value in data set [10] (anti-HIS detection) worked out at 2 ×. Moreover, the “decrease of 8C2 mAb binding by addition of 8C2 VHH” value in data set [10] (anti-mouse IgG detection) is about 2 fold.
